Entries after “also recorded” stand apart in the source; their conditions may differ.
What was measured:
Format in all cases: cell-based, human
[1] = tested on: iPSC-RPE cells; assay: Immunostaining of iPSC-RPE monolayer (beta catenin, pERM, ZO1, RPE65, p27); conditions: for p27 staining: nucleus, higher expression suggests cell cycle exit; for Beta catenin staining: treated vs untreated iPSC-RPE cells (untreated: cytoplasm); for RPE65 staining: treated vs untreated iPSC-RPE cells (untreated: low); for RPE maturation: treatment of RPE cells in RPE-MM
Description: (§1) For analysis of the mature RPE cells produced from treatment with PGE2, immunostaining of the RPE monolayer was performed to confirm the hexagonal architecture (FIGS. 4A-4C) of tight junctions by ZO1 staining as well as transmission electron microscopy of the iPSC-RPE cells (FIG. 4D). […] In addition, treatment with IWP2+endo-IWR1 or IWP2 results also results in decreased beta catenin (FIG. 5A) and increased RPE65 (FIG. 5C).

[2] = tested on: RPE population; assay: Inclusion of MEK inhibitor in RDM and RPE-MM during RPE differentiation; conditions: 1 μM in RDM and in RPE-MM (approximately Days 42 through 50)
Description: With regard to the methods described in Examples 2 and 3, the inclusion of PD0325901 at a concentration of 1 μM in media for certain windows of time beginning on Day 2 post iPSC plating through the end of the differentiation process, including post-MACS culture, may improve both purity of the RPE population (meaning a decrease in contaminating cells) as well as maturity of the resulting RPE population.

[3] = tested on: iPSC-RPE cells; assay: Transmission electron microscopy of iPSC-RPE cells; conditions: treated vs untreated iPSC-RPE cells
Description: as §1

[4] = tested on: iPSC-derived RPE cells; assay: Barrier function: transepithelial electrical potential (TEP) and resistance (TER) of RPE monolayer
Description: To measure the barrier function of the RPE cells generated by the present methods, transepithelial electrical potential (TEP) was measured the ion gradient across the monolayer generated by energy-driven ion pumps that regulate passage across the cells, and transepithelial electrical resistance (TER) measures resistance of substances through the paracellular space mainly through the fine structure of the tight junction structure (FIG. 7A).
Functionality of the mature RPE cells treated with IWP2 or endo-IWR1 was also characterized. […] To determine the maturity and functionality of the 50 μM versus 100 μM PGE2 treated cultures, the barrier function in terms of transepithelial electrical resistance (TER) was measured (FIG. 7F) to compare the resistance of substances through the paracellular space as explained in Example 9. To determine the percentage of pure RPE cells obtained after treatment of the iPSC-derived RPE cultures with 50 μM or 100 μM in the RPE-MM+PGE2 medium, flow cytometry purity assay was performed for RPE-specific markers (FIG. 7G) as described in Example 6.

[5] = tested on: iPSC-derived RPE cells; assay: Flow cytometry purity assay for RPE-specific markers
Description: The flow cytometry purity assay was performed to determine the percentage of RPE cells obtained by a sorting method of the present disclosure. An aliquot of the cell suspension collected from the MACS assay (2×10^6 cells in a 5 mL FACS tube per sample) was centrifuged at 400×g for 3 min. The cell pellet was resuspended in 1 mL of a stain (e.g., Live-Dead Red stain) and incubated in the dark at room temperature for 15 min. After incubation, 2 mL of wash buffer was added and the cells were centrifuged at 400×g for 3 min to remove any unbound stain. The cell pellet was resuspended in fixation buffer and incubated in the dark at room temperature for 15 min. After incubation, 2 mL of wash buffer were added and the cells were centrifuged at 400×g for 3 min and the supernatant was decanted. The cell pellet was resuspended in 2 mL of wash buffer to make a 1×10^6 cells/mL suspension and 200 μL of the cell suspension was transferred to a FACS tube. To each tube, 2 mL of perm buffer was added and cells were centrifuged at 400×g for 3 min. Primary antibodies for the RPE-specific markers were diluted in perm buffer and 100 μL diluted antibody solution was added to each tube. After incubation overnight at 4° C. in the dark, the cells were washed in 2 mL Perm Buffer two times. Secondary antibody solution was added to each of the tubes and cells were incubated at room temperature in the dark for 1-2 hours. After incubation, the cells were washed twice with Perm Buffer, centrifuged (400×g for 3 min) and resuspended in 100 μL wash buffer for flow cytometry analysis. […]
Functionality of the mature RPE cells treated with IWP2 or endo-IWR1 was also characterized. […] To determine the maturity and functionality of the 50 μM versus 100 μM PGE2 treated cultures, the barrier function in terms of transepithelial electrical resistance (TER) was measured (FIG. 7F) to compare the resistance of substances through the paracellular space as explained in Example 9. […]

[6] = day 75, 100 μM vs 50 μM PGE2, day 54 to day 75

| SMILES | p27 staining [1] | Beta catenin staining [1] | RPE65 staining [1] | Purity and maturity of the RPE population [2] | ZO1 staining ([1]; both untreated and treated cells) | pERM (Ezrin) staining ([1]; treated vs untreated iPSC-RPE cells (untreated: low in cytoplasm)) | RPE maturation [1] | Apical processes in transmission electron micrographs [3] | Functional response (TER) ([4]; 100 μM vs 50 μM PGE2 in RPE-MM+PGE2 medium, Day 54 to Day 75) | TEP and TER measurements (functionality) ([4]; treated vs untreated RPE cells) | Expression of Best 1 marker (late maturity RPE marker) [5, 6] | Expression of Pmel17, Tryp1 and Cralbp (RPE-specific markers) [5, 6] | Purity and maturity of the RPE population ([5]; higher concentration (100 μM vs 50 μM) in RPE-MM+PGE2 medium, TER and flow cytometry) |
| --- | --- | --- | --- | --- | --- | --- | --- | --- | --- | --- | --- | --- | --- |
| [Cl-].[Li+] [LiCl] | weak p27 expression in the nucleus | in the nucleus | no staining |  |  |  |  |  |  |  |  |  |  |
| O=C(NOC[C@H](O)CO)c1ccc(F)c(F)c1Nc1ccc(I)cc1F [PD 0325901, N-[(2R)-2,3-Dihydroxypropoxy]-3,4-difluoro-2-[(2-fluoro-4-iodophenyl)amino]-benzamide] |  |  |  | improve both purity and maturity |  |  |  |  |  |  |  |  |  |
| CCCCC[C@H](O)/C=C/[C@H]1[C@H](O)CC(=O)[C@@H]1C/C=C\CCCC(=O)O [PGE2, prostaglandin E2] |  | decreased; also recorded: at the membrane | increased; also recorded: high in the cytoplasm |  | at the tight junctions in the plasma membrane | high in the cytoplasm | produces mature RPE cells | more extensive apical processes | progressive increase | increased functionality | much higher | comparable expression | promotes both the purity and maturity |
| Cc1ccc2nc(NC(=O)CSc3nc4c(c(=O)n3-c3ccccc3)SCC4)sc2c1 [IWP2, N-(6-Methyl-2-benzothiazolyl)-2-[(3,4,6,7-tetrahydro-4-oxo-3-phenylthieno[3,2-d]pyrimidin-2-yl)thio]-acetamide] | higher p27 expression in the nucleus | decreased; also recorded: on cell membrane | increased; also recorded: high in the cytoplasm |  |  |  | produces mature RPE cells |  |  |  |  |  |  |

Reference: US12065671B2, “Method for reproducible differentiation of clinical-grade retinal pigment epithelium cells” (The United States of America, as represented by the …, priority 2015, dated 2024)
